# Results from US8273553B2, “Production of growth hormone in serum-free cell culture medium for mammalian cells” (Ares Trading S.A., priority 2004, dated 2012).
# Where two headings read alike, the source gives them in different places.
# Legend:
# [1] = tested on: hGH expressing C127 cells; assay: rhGH productivity of hGH expressing C127 cells in roller bottles, DMEM supplemented with trace elements (Example 1); type: cell-based, murine; details: for productivity increase, amino acid added together with the metals: Zn 0.5 μM, Cu 0.02 μM, Ferric Citrate 4.8 μM plus Gln 4.8 mM or Cys 0.29 mM; for % INCREASE OF PRODUCTIVITY: single ion in DMEM at growth medium concentration: Zn 1.50300, Cu 0.02560, Se 0.11400, Co 0.00840 μM; for average productivity increase compared to control: 10 μM continuously added to DMEM, production phase 14 days; for productivity increase at the assayed concentration (in words): 10 μM in DMEM
# Protocol: The addition of the different supplements assayed (metal solutions etc.) in different experiments was carried out directly on fresh culture medium.
# Genetically modified C127 murine cells (ATCC CRL 1616) were used for the expression of the recombinant human growth hormone (rhGH). The vector is based on BPV69T comprising the pBR322 multiple cloning site and comprising 1.6 kb of the rhGH minigene under the control of mouse metallothionein-1 (MT-1) promoter. Cultures derived from one Working Cell Bank obtained from different rhGH production batches were used in the experiments.
# Cell cultures were kept incubated at 36° C.±0.5° C. and 0.4 rpm in 2125 cm^2 roller bottles containing 375 mL±15 mL of culture medium or in 1700 cm cm^2 roller bottles containing 300 mL of culture medium.
# Culture medium used for the rhGH production phase was DMEM with 4.5 g/L glucose buffered with sodium bicarbonate (3.7 g/L).
# Measurement of rhGH in the culture medium was carried out daily by reverse-phase HPLC titration:
# Chromatography conditions are: • Elution by gradient: starting with a mixture phase A/phase B 60/40 ending at phase A/phase B 20/80. Gradient complete in 5 minutes (slightly variable depending on instrumentation in use) • Injection volume 50 μliters • Detection: UV absorbance at 215 nm. • P Calibration curve: r-hGH standard at 10, 50, 100, 120 and 150 μg/ml
# The r-hGH concentration of a sample is determined by comparison with standard r-hGH concentrations.
# Productivity is expressed as mg of rhGH per roller bottle. Raw data are rhGH concentration in the harvest (as measured by HPLC) and total number of roller bottles harvested. Typically a roller bottle during harvest phase contains around 10^9 cells.
# [2] = tested on: r-hGH producing cells of working cell bank 15 (WCB15); assay: r-hGH productivity in six-well plates (P6 system), DMEM with additions (Example 2); type: cell-based; details: for average productivity, % of control: duplicate; for response μg/well/hrvst / response as % “−1−1−1”: Cr 2.5 nM, Ni 1 nM in DMEM, average of 14 harvests; for response as % “−1−1−1”: relative to no addition; for % increase of hGH productivity: 6-well system
# Protocol: The experiments were carried out using the working cell bank 15 (WCB15), which is now in current use in normal production.
# Scale-down screening experiments were carried out in six-well plates COSTAR P6 of treated CELLBIND polystyrene (CORNING catalogue No. 3335) supplied with 5 mL of culture medium per well. In this case P6 plates were seeded with cells taken from the subculture 3 (standard manufacturing process) to an approximate density of 5×10^5 viable cells/well and then incubated at 37° C., within controlled atmosphere of CO2 at 5%, with standard growth medium or under 13% CO2 when changing to DMEM production medium modified as per the specific experimental plan.
# (§1) Measurement of r-hGH in the culture medium was carried out daily by the currently approved reverse-phase HPLC titration.
# In other experiments, metal trace elements were added to the DMEM in three concentrations and tested for effects on r-hGH productivity in 6-well plates. Each concentration was tested in duplicate and the average value was calculated. In all cases the concerned salt was prepared as 1000× stock solution from which the corresponding aliquots were taken and added to the medium.
# [3] = tested on: r-hGH producing cells of working cell bank 15 (WCB15); type: cell-based; details: for Product. up to H14 / Product. up to H25: relative to control
# Protocol: According to the approved work instructions, cell cultures were kept incubated at 36° C.±0.5° C. and 0.4 rpm in 1700 cm^2 roller bottles containing 400 mL±20 mL of culture medium.
# as §1
# [4] = tested on: cell monolayer of rhGH-producing cultures; assay: peeling-off: detachment of the cell monolayer from the roller bottles; details: roller bottles with CDX, second part of harvest period
# [5] = pH in a range of 6.5 to 8.5; cited from earlier work
compound,measurement,setting,value
"NC(=O)CC[C@H](N)C(=O)O [glutamine, L-glutamine]","productivity increase, amino acid added together with the metals",[1],81.1%
"O.O.O.O.O.O=S(=O)([O-])[O-].[Cu+2] [Cu, Copper Sulfate (CuSO4.5H2O)]",increase in productivity,[1]; Copper 0.02 μM in DMEM,32.1%±9.4%
same,optimal supplementation concentration in DMEM,[1]; Zinc 0.5 μM and Ferric Citrate 4.8 μM constant,25.6 nM
same,% INCREASE OF PRODUCTIVITY,[1],37.50%
[Sn] [Sn],"average productivity, % of control",[2]; 1 nM in DMEM,101.8%
same,"average productivity, % of control",[2]; 10 nM in DMEM,97.7%
same,"average productivity, % of control",[2]; 100 nM in DMEM,96.5%
same,effect of higher concentrations on productivity (in words),[2]; highest tested concentrations,higher concentrations seem to reduce productivity
"O.O.O.O.O.O.[Cl-].[Cl-].[Co+2] [Co, Cobalt Chloride (CoCl2.6H2O)]",average productivity increase compared to control,[1],32.4%
same,"rhGH productivity increase compared to control, continued induction",[1]; cobalt continuously added (10 μM),32.5%
same,"rhGH productivity increase compared to control, intermittent induction",[1]; cobalt intermittently added (20 μM CoCl2.6H2O),9%
same,% INCREASE OF PRODUCTIVITY,[1],−3.20%
same,statistical analysis of effect on productivity (in words),"[2]; 2^3 factorial design, Co 5 mcrM",significant effect on productivity
same,response μg/well/hrvst,[2]; Co 5 mcrM,272.1 μg/well/hrvst
same,response as % “−1−1−1”,[2]; Co 5 mcrM,107.1%
same,Product. up to H14,[3]; Co 1 mcrM added to DMEM,107%
same,Product. up to H25,[3]; Co 1 mcrM added to DMEM,102%
same,Product. up to H14,[3]; Co 2 mcrM added to DMEM,110%
same,Product. up to H25,[3]; Co 2 mcrM added to DMEM,102%
same,Product. up to H14,[3]; Co 5 mcrM added to DMEM,113%
same,Product. up to H25,[3]; Co 5 mcrM added to DMEM,101%
same,Product. up to H14,[3]; Co 10 mcrM added to DMEM,117%
same,Product. up to H25,[3]; Co 10 mcrM added to DMEM,104%
"O.O.O.O.O.O.O.O.O.O.O.O.O=S(=O)([O-])[O-].O=S(=O)([O-])[O-].[Cr+3].[K+] [Cr, Chromium Potassium Sulfate (K[Cr(SO6H4)2(H2O)2].6H2O)]",productivity increase at the assayed concentration (in words),[1],Neither Barium nor Chromium showed productivity increase
same,"average productivity, % of control",[2]; 1 nM in DMEM,102.0%
same,"average productivity, % of control",[2]; 10 nM in DMEM,102.8%
same,"average productivity, % of control",[2]; 100 nM in DMEM,97.8%
same,response μg/well/hrvst,[2]; Co 5 mcrM,253.6 μg/well/hrvst
same,response as % “−1−1−1”,[2]; Co 5 mcrM,99.8%
"O.O.O.O.O.O.O.O.O=S(=O)([O-])[O-].O=S(=O)([O-])[O-].O=S(=O)([O-])[O-].[Cd+2].[Cd+2].[Cd+2] [Cd, Cadmium Sulphate (CdSO4.8/3H2O)]","average productivity, % of control",[2]; 1 nM in DMEM,100.8%
same,"average productivity, % of control",[2]; 10 nM in DMEM,103.6%
same,increase of productivity,[2]; 100 nM,20%
same,"average productivity, % of control",[2]; 100 nM in DMEM,120.6%
same,increase in r-hGH productivity over the control,"[3]; Cd 100 nM, roller bottles, two independent experiments",12-15%
"O.O.[Ba+2].[Cl-].[Cl-] [Ba, Barium Chloride (BaCl2.2H2O)]",average productivity increase compared to control,[1],1.1%
same,productivity increase at the assayed concentration (in words),[1],Neither Barium nor Chromium showed productivity increase
same,"average productivity, % of control",[2]; 1 nM in DMEM,103.1%
same,"average productivity, % of control",[2]; 10 nM in DMEM,101.9%
same,"average productivity, % of control",[2]; 100 nM in DMEM,98.9%
[Mn] [Mn],"average productivity, % of control",[2]; 1 nM in DMEM,101.3%
same,"average productivity, % of control",[2]; 10 nM in DMEM,103.8%
same,"average productivity, % of control",[2]; 100 nM in DMEM,101.8%
"O.O.O.O.O.O.O=[N+]([O-])[O-].O=[N+]([O-])[O-].[Ni+2] [Ni, Nickel Nitrate (Ni(NO3)2.6H2O)]","average productivity, % of control",[2]; 1 nM in DMEM,103.1%
same,"average productivity, % of control",[2]; 10 nM in DMEM,102.1%
same,"average productivity, % of control",[2]; 100 nM in DMEM,98.6%
same,response μg/well/hrvst,[2]; Co 5 mcrM,257.0 μg/well/hrvst
same,response as % “−1−1−1”,[2]; Co 5 mcrM,101.2%
"N[C@@H](CSSC[C@H](N)C(=O)O)C(=O)O [cystine, L-cystine]","productivity increase, amino acid added together with the metals",[1],69.9%
"O.O.O.O.O.O=[Se]([O-])[O-].[Na+].[Na+] [Se, Sodium Selenite (Na2SeO3.5H2O)]",% INCREASE OF PRODUCTIVITY,[1],−3.10%
same,"average productivity, % of control",[2]; 1 nM in DMEM,101.5%
same,"average productivity, % of control",[2]; 10 nM in DMEM,102.4%
same,"average productivity, % of control",[2]; 500 nM in DMEM,101.4%
Methyl-β-Cyclodextrin [CDX],peeling off in the roller bottles (visual observation),[4],much less peeling off
same,% increase of hGH productivity,"[2]; CDX 25 mg/L, 0.02 mM",2%
same,% increase of hGH productivity,"[2]; CDX 50 mg/L, 0.04 mM",4%
same,% increase of hGH productivity,"[2]; CDX 80 mg/L, 0.07 mM",5%
same,% increase of hGH productivity,"[2]; CDX 116 mg/L, 0.1 mM",7%
same,increase in productivity,[2]; CDX only (FIG. 19),7%
same,productivity relative to the control,"[3]; CDX 116 mg/L (0.1 mM), Cadmium 0.1 micromolar, Cobalt 1 micromolar",104%
"O.O.O.O.O.O.O.O=S(=O)([O-])[O-].[Zn+2] [Zn, Zinc sulfate (ZnSO4.7H2O)]",concentration at which maximum productivity level (plateau) is observed,[1]; Ferric Citrate 4.8 μM and Copper 0.025 μM constant,above 200 nM
same,increase in productivity,[1]; Zinc 0.5 μM in DMEM,16.8%±1.6%
same,increase in productivity,[1]; Zinc 1.5 μM in DMEM,10.3%±5.0%
same,productivity at plateau over the average control value,"[1]; Zinc above 200 nM, Ferric Citrate 4.8 μM, Copper 0.025 μM",about 60%
same,% INCREASE OF PRODUCTIVITY,[1],12.10%
hGH: single polypeptide chain of 191 amino acids having two disulfide bonds,solubility in aqueous buffers,[5],> 10 µg/mL
